In paper PMC8800111 (The Journal of Biological Chemistry, 2021):

Columns and labels:
Format in all cases: cell-based
[1] = molecular target: proteins of U3A human fibrosarcoma cells (4462 proteins detected) (Homo sapiens, UniProt Q9UIS9); conditions: protein MBD1; U3A cells
[2] = molecular target: proteins of U3A human fibrosarcoma cells (4462 proteins detected) (Homo sapiens, UniProt O14828); conditions: protein SCAMP3; soluble abundance after heat, U3A cells
[3] = molecular target: proteins of U3A human fibrosarcoma cells (4462 proteins detected) (Homo sapiens, UniProt P15153); conditions: protein RAC2; U3A, 10 μM, 2 h
[4] = molecular target: proteins of U3A human fibrosarcoma cells (4462 proteins detected) (Homo sapiens, UniProt P56282); conditions: protein POLE2; U3A cells
Sequence of proteins of U3A human fibrosarcoma cells (4462 proteins detected) (Homo sapiens, UniProt P56282) (P56282 whole entry): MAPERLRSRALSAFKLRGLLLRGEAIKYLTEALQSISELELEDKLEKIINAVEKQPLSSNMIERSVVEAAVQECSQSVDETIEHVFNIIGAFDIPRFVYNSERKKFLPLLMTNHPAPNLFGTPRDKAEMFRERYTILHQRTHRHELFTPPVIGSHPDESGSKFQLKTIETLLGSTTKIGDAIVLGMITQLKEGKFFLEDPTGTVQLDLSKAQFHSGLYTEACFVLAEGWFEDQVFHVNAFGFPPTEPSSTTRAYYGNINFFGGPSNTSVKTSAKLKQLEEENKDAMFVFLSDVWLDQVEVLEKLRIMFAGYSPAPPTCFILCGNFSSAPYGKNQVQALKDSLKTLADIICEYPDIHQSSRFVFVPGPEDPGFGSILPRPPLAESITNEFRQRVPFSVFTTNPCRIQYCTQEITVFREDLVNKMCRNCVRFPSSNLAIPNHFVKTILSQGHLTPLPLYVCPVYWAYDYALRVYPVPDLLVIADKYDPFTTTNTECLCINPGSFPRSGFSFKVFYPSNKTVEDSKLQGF

[5] = molecular target: proteins of U3A human fibrosarcoma cells (4462 proteins detected) (Homo sapiens, UniProt Q12905); conditions: protein ILF2; U3A cells
[6] = molecular target: proteins of U3A human fibrosarcoma cells (4462 proteins detected) (Homo sapiens, UniProt Q9Y5A9); conditions: protein YTHDF2; U3A cells
[7] = molecular target: proteins of U3A human fibrosarcoma cells (4462 proteins detected) (Homo sapiens, UniProt Q5T5Y3); conditions: protein CAMSAP1; soluble abundance after heat, U3A cells
[8] = molecular target: proteins of U3A human fibrosarcoma cells (4462 proteins detected) (Homo sapiens, UniProt Q01826); conditions: protein SATB1; U3A cells
[9] = molecular target: proteins of U3A human fibrosarcoma cells (4462 proteins detected) (Homo sapiens, UniProt O76061); conditions: protein STC2; U3A cells
[10] = molecular target: proteins of U3A human fibrosarcoma cells (4462 proteins detected) (Homo sapiens, UniProt Q9H7Z7); conditions: protein PTGES2, U3A cells
[11] = molecular target: proteins of U3A human fibrosarcoma cells (4462 proteins detected) (Homo sapiens, UniProt Q9UH65); conditions: protein SWAP70; soluble abundance after heat, U3A cells
Sequence of proteins of U3A human fibrosarcoma cells (4462 proteins detected) (Homo sapiens, UniProt Q9UH65) (Q9UH65 whole entry): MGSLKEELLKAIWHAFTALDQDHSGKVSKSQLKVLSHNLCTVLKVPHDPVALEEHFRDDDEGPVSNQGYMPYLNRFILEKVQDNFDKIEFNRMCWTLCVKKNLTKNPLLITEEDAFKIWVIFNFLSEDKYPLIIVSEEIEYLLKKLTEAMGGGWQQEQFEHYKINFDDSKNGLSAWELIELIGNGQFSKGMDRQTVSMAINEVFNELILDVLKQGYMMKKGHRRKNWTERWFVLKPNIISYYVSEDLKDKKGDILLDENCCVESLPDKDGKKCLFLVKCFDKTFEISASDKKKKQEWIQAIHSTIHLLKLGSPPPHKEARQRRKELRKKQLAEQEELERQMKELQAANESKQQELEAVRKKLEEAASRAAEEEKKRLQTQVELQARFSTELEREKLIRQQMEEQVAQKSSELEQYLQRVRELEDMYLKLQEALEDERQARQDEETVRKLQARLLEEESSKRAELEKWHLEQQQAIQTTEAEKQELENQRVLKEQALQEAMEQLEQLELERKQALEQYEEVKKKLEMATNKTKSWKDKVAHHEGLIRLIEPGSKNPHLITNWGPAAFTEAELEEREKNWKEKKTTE

[12] = molecular target: proteins of U3A human fibrosarcoma cells (4462 proteins detected) (Homo sapiens, UniProt P43243); conditions: protein MATR3; soluble abundance after heat, U3A cells
Sequence of proteins of U3A human fibrosarcoma cells (4462 proteins detected) (Homo sapiens, UniProt P43243) (P43243 whole entry): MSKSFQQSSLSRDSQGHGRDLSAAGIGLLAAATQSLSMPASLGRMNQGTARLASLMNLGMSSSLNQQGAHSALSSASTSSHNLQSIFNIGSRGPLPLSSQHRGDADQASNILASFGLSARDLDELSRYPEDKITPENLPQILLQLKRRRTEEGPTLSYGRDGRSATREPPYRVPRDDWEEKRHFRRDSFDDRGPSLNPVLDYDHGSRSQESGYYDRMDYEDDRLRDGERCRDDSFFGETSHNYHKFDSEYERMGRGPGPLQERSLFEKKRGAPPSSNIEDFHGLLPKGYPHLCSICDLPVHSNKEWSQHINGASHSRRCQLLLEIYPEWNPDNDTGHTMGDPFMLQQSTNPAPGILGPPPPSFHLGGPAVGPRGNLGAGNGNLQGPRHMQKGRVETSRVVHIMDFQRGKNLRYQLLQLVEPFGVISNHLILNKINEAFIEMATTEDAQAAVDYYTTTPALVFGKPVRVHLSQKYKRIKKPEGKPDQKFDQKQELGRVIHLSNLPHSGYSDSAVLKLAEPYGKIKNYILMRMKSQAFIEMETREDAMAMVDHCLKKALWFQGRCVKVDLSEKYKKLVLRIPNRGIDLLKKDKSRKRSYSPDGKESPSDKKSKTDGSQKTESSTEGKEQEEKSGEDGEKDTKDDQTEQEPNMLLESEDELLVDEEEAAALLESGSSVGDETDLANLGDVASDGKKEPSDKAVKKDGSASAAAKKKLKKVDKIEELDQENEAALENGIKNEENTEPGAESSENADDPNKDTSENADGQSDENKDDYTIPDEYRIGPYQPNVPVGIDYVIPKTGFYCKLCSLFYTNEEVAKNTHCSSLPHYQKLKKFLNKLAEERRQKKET

[13] = molecular target: proteins of U3A human fibrosarcoma cells (4462 proteins detected) (Homo sapiens, UniProt P40123); conditions: protein CAP2; U3A cells
[14] = molecular target: proteins of U3A human fibrosarcoma cells (4462 proteins detected) (Homo sapiens, UniProt P02786); conditions: protein TFRC; U3A cells
Sequence of proteins of U3A human fibrosarcoma cells (4462 proteins detected) (Homo sapiens, UniProt P02786) (P02786 whole entry): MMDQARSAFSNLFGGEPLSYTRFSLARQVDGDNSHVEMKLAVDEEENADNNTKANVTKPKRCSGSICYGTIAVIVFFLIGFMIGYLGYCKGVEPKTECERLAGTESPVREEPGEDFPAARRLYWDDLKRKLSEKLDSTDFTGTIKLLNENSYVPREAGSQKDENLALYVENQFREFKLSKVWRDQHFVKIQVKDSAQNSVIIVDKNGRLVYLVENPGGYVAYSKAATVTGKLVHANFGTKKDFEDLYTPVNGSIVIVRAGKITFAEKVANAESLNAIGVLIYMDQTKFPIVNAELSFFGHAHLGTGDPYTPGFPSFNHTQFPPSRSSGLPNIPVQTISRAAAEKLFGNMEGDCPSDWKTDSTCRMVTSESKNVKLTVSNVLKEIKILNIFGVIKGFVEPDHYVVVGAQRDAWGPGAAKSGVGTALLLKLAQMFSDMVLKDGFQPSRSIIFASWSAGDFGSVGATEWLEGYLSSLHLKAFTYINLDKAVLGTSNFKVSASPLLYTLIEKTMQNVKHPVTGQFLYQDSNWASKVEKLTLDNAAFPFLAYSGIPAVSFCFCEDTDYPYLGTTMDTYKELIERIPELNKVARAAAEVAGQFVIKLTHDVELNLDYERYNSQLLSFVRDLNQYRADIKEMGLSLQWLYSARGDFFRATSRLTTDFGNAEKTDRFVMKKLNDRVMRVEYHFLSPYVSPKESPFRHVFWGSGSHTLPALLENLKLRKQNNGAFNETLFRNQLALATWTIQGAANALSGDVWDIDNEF

[15] = molecular target: proteins of U3A human fibrosarcoma cells (4462 proteins detected) (Homo sapiens, UniProt Q96EQ0); conditions: protein SGTB, U3A cells
[16] = molecular target: proteins of U3A human fibrosarcoma cells (4462 proteins detected) (Homo sapiens, UniProt Q9NS91); conditions: protein RAD18; U3A cells
[17] = molecular target: proteins of U3A human fibrosarcoma cells (4462 proteins detected) (Homo sapiens, UniProt P48507); conditions: protein GCLM; U3A cells
[18] = molecular target: proteins of U3A human fibrosarcoma cells (4462 proteins detected) (Homo sapiens, UniProt Q9GZT3); conditions: protein SLIRP, U3A cells
[19] = molecular target: proteins of U3A human fibrosarcoma cells (4462 proteins detected) (Homo sapiens, UniProt P17987); conditions: protein TCP1; U3A cells
[20] = molecular target: proteins of U3A human fibrosarcoma cells (4462 proteins detected) (Homo sapiens, UniProt Q9ULX3); conditions: protein NOB1; U3A cells
[21] = molecular target: proteins of U3A human fibrosarcoma cells (4462 proteins detected) (Homo sapiens, UniProt Q92922); conditions: protein SMARCC1; soluble abundance after heat, U3A cells
Sequence of proteins of U3A human fibrosarcoma cells (4462 proteins detected) (Homo sapiens, UniProt Q92922) (Q92922 whole entry): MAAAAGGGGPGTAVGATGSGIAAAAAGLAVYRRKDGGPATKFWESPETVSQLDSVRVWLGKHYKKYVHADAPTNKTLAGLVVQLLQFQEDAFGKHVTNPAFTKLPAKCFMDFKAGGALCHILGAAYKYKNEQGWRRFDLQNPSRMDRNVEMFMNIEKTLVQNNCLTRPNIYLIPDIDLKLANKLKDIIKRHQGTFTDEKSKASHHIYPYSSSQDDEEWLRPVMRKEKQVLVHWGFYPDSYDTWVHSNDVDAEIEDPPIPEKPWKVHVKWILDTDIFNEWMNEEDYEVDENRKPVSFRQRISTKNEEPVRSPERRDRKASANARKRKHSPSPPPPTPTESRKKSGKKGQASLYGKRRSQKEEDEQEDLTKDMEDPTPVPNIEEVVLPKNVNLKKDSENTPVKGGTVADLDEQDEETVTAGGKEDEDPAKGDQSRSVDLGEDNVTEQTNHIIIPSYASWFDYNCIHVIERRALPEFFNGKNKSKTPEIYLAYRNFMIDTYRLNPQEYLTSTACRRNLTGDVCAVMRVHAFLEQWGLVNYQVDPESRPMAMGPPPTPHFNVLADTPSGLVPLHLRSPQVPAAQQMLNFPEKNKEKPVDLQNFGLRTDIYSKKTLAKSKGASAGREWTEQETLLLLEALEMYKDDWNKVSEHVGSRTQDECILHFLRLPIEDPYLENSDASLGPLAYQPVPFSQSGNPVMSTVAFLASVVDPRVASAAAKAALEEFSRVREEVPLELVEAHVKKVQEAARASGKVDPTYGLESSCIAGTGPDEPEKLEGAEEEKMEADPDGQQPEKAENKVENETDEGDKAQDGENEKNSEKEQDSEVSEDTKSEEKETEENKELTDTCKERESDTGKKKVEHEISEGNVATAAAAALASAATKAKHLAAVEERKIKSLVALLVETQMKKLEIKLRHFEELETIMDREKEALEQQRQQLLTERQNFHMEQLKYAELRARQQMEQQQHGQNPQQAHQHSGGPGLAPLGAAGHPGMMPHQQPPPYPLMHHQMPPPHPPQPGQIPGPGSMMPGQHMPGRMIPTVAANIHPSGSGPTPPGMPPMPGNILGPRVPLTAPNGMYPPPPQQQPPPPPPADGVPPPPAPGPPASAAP

[22] = molecular target: proteins of U3A human fibrosarcoma cells (4462 proteins detected) (Homo sapiens, UniProt Q9NQT5); conditions: protein EXOSC3; U3A cells
[23] = molecular target: proteins of U3A human fibrosarcoma cells (4462 proteins detected) (Homo sapiens, UniProt Q9NWH9); conditions: protein SLTM; soluble abundance after heat, U3A cells
[24] = molecular target: proteins of U3A human fibrosarcoma cells (4462 proteins detected) (Homo sapiens, UniProt Q15459); conditions: protein SF3A1; U3A cells
[25] = molecular target: proteins of U3A human fibrosarcoma cells (4462 proteins detected) (Homo sapiens, UniProt Q9Y281); conditions: protein CFL2, U3A cells
Sequence of proteins of U3A human fibrosarcoma cells (4462 proteins detected) (Homo sapiens, UniProt Q9Y281) (Q9Y281 whole entry): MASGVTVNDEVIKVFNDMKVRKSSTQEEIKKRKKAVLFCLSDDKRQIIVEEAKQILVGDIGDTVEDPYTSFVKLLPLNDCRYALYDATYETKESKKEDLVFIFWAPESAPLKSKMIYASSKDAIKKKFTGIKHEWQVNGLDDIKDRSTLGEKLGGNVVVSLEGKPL

[26] = molecular target: proteins of U3A human fibrosarcoma cells (4462 proteins detected) (Homo sapiens, UniProt Q8IZL8); conditions: protein PELP1; U3A cells
[27] = molecular target: proteins of U3A human fibrosarcoma cells (4462 proteins detected) (Homo sapiens, UniProt P63096); conditions: protein GNAI1; soluble abundance after heat, U3A cells
Sequence of proteins of U3A human fibrosarcoma cells (4462 proteins detected) (Homo sapiens, UniProt P63096) (P63096 whole entry): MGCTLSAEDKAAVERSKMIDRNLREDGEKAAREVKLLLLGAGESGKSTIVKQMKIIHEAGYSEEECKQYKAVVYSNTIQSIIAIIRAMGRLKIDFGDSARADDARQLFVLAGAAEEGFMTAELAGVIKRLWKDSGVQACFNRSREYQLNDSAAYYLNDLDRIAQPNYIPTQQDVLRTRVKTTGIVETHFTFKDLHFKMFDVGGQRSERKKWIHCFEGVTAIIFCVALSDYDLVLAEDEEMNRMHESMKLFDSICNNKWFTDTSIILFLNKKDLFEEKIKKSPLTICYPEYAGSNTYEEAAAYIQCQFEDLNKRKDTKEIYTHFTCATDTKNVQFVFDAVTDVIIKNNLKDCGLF

[28] = molecular target: proteins of U3A human fibrosarcoma cells (4462 proteins detected) (Homo sapiens, UniProt P14649); conditions: protein MYL6B, U3A cells
Sequence of proteins of U3A human fibrosarcoma cells (4462 proteins detected) (Homo sapiens, UniProt P14649) (P14649 whole entry): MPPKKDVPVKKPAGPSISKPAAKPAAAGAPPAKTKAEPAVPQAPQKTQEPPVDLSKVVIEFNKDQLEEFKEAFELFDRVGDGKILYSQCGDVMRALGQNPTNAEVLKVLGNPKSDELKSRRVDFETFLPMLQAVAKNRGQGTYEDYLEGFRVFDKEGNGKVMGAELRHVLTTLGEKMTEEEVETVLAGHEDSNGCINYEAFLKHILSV

[29] = molecular target: proteins of U3A human fibrosarcoma cells (4462 proteins detected) (Homo sapiens, UniProt P17706); conditions: protein PTPN2, U3A cells
[30] = molecular target: proteins of U3A human fibrosarcoma cells (4462 proteins detected) (Homo sapiens, UniProt Q9H1D9); conditions: protein POLR3F; U3A cells

Sequence of proteins of U3A human fibrosarcoma cells (4462 proteins detected) (Homo sapiens, UniProt O14828) (O14828 whole entry): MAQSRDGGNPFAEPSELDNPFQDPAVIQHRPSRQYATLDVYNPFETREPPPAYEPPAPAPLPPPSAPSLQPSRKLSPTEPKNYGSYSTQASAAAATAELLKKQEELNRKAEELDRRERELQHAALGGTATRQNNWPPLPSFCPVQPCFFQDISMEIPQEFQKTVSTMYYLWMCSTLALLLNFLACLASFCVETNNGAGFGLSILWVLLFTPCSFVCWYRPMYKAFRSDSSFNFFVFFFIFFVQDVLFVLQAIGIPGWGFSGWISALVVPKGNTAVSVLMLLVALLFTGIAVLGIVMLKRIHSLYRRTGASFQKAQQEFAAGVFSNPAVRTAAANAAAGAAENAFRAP

## CCc1nc(N)nc(N)c1-c1ccc(Cl)cc1 [pyrimethamine]
[1]
  Log2 (PYR/DMSO): 0.19
[2]
  Log2 (PYR/DMSO): 0.14
[3]
  Log2 (PYR/DMSO), RAC2: -0.15
[4]
  Log2 (PYR/DMSO): 0.19
[5]
  Log2 (PYR/DMSO): 0.18
[6]
  Log2 (PYR/DMSO): 0.16
[7]
  Log2 (PYR/DMSO): 0.13
[8]
  Log2 (PYR/DMSO): 0.21
[9]
  Log2 (PYR/DMSO): 0.16
[10]
  Log2 (PYR/DMSO): -0.04
[11]
  Log2 (PYR/DMSO): 0.14
[12]
  Log2 (PYR/DMSO): 0.14
[13]
  Log2 (PYR/DMSO): 0.21
[14]
  Log2 (PYR/DMSO): 0.16
[15]
  Log2 (PYR/DMSO): -0.04
[16]
  Log2 (PYR/DMSO): 0.17
[17]
  Log2 (PYR/DMSO): 0.20
[18]
  Log2 (PYR/DMSO): -0.04
[19]
  Log2 (PYR/DMSO): 0.21
[20]
  Log2 (PYR/DMSO): 0.15
[21]
  Log2 (PYR/DMSO): 0.15
[22]
  Log2 (PYR/DMSO): 0.18
[23]
  Log2 (PYR/DMSO): 0.15
[24]
  Log2 (PYR/DMSO): 0.16
[25]
  Log2 (PYR/DMSO): -0.04
[26]
  Log2 (PYR/DMSO): 0.16
[27]
  Log2 (PYR/DMSO): 0.14
[28]
  Log2 (PYR/DMSO): -0.04
[29]
  Log2 (PYR/DMSO): -0.04
[30]
  Log2 (PYR/DMSO): 0.17
